Measured values reported in patent publication US6916905B2, “Dmt-Tic di-and tri-peptidic derivatives and related compositions and methods of use” (The United States of America as represented by the …, priority 2000, dated 2005).
Where two headings read alike, the source gives them in different places. Marks after values point to notes of the source that are not given here. Non-standard residues stand in square brackets, D forms with d. Residues, ends and D or L forms follow the SMILES beside them. *: point of attachment. Dmt = Cc1cc(O)cc(C)c1C[C@H](N)C(=O)O; Tic = O=C(O)[C@@H]1Cc2ccccc2CN1; NHtBu = CC(C)(C)N*

How the values were obtained:
δ-opioid receptors [1] = molecular target: T1, δ-opioid receptors (Rattus norvegicus, UniProt P33533); conditions: selectivity; Kiδ from [3H]DPDPE; cells marked a/b: Salvadori et al. (1995), (1997); cited from earlier work
T1 construct: assayed with a rat brain synaptosomal preparation (P2); from tissue; host or cells: rat brain P2 synaptosomes

δ-opioid receptors [2] = molecular target: T1, δ-opioid receptors; test: Rat brain synaptosome (P2) binding, δ antagonist [3H]N,N(CH3)2-Dmt-Tic-OH (Example 47); conditions: for Antagonist K1μ/Kiδ: selectivity, Kiδ from antagonist radioligand [3H]N,N(CH3)2-Dmt-Tic-OH
Experimental: (§3) Briefly, the agonists [^3H]DPDPE (30-60 Ci/mmol, NEN-DuPont) and [^3H]DAGO (30-60 Ci/mmol, Amersham) were used to label δ and μ sites, respectively, under saturation binding conditions (2 hrs at 22° C.). Excess unlabeled peptide (2 μM) established non-specific binding levels and the labeled membranes were rapidly filtered on Whatman GF/C glass fibre filters, thoroughly washed, dried and measured for radioactivity using CytoScint (ICN, Irvine, Calif.). […] The affinity constants (Ki) were calculated according to Cheng and Prusoff (Biochem. Pharmacol. 22: 3099-3108 (1973)).

δ receptors [3] = molecular target: T2, δ receptors (Mus musculus, UniProt P32300); conditions: for MVD Ke: δ antagonism, Ke = antilog of pA2; for Kb: MVD pA2 (range)
Experimental: (§1) The functional bioactivity of the present inventive compounds was assessed using standard functional bioassays of δ and μ activity in MVD and GPI (Salvadori et al. (1995), supra; and Salvadori et al., J. Med. Chem. 36: 3748-3756 (1993)). […] Dose-response curves were obtained (Salvadori et al. (1995), supra) for both tissues. […] Data were derived from at least four independent tissue samples and dose-response curves from which the pA2 values were determined (Salvadori et al. (1997), supra) according to Arunlakshana and Schild (Br. J. Pharmacol. 14: 48-58 (1959)).

δ-opioid receptors [4] = molecular target: T1, δ-opioid receptors; conditions: radioligand; Kertesz et al. (1998); cited from earlier work
δ receptors [5] = molecular target: T3, δ receptors (Rattus norvegicus, UniProt P33533); test: Radio-receptor competition assay, rat brain synaptosomes, [3H]DPDPE (Example 74); assay type: binding; conditions: for μ/δ: selectivity Kiμ/Kiδ; for Ki: rat brain P2 synaptosomes, [3H]DPDPE, read-out: Receptor affinity (nM) Kiδ
T3 construct: assayed with a rat brain synaptosomal preparation (P2); from tissue; host or cells: rat brain P2 synaptosomes
Experimental: (§2) After 120 min incubation at room temperature (23-24° C.), the samples were rapidly filtered through Whatman GF/C glass fiber filers and washed three times with 2 ml ice-cold 0.05 M Tris, pH 7.4-7.5, containing 0.1% BSA. Presoaking filters in 0.1% polyethylenimine is only required in assays with peptides carrying an overall positive charge, such as dynorphin or nociceptin (Guerrini et al., J. Med. Chem., 40: 1789-1793 (1997)). Non-specific binding was determined using 2 μM unlabeled DPDPE or DAGO for δ or μ assays, respectively. The Ki data, determined according to Cheng and Prusoff (Cheng et al., Biochem. Pharmacol., 22: 3099-3108 (1973)), represent the means±SE from 3 or more independent assays using at least 3 different synaptosome preparations and testing the analogues with 5-8 graded dosages over 2-3 orders of magnitude in concentration.

μ receptors [6] = molecular target: T4, μ receptors (Rattus norvegicus, UniProt P33535); test: Radio-receptor competition assay, rat brain synaptosomes, [3H]DAGO (Example 74); assay type: binding; conditions: for Ki: rat brain P2 synaptosomes, [3H]DAGO, read-out: Receptor affinity (nM) Kiμ
T4 construct: assayed with a rat brain synaptosomal preparation (P2); from tissue; host or cells: rat brain P2 synaptosomes
Experimental: as §2

μ-opioid receptors = molecular target: T5, μ-opioid receptors (Rattus norvegicus, UniProt P33535); test: Rat brain synaptosome (P2) binding, [3H]DAGO (Example 47)
T5 construct: assayed with a rat brain synaptosomal preparation (P2); from tissue; host or cells: rat brain P2 synaptosomes

δ receptors [7] = molecular target: T2, δ receptors; test: MVD functional pharmacological bioassay (Example 75); set-up: A single MVD was suspended in 4 ml modified Kreb's solution; from tissue; host or cells: mouse vas deferens
δ receptors [8] = molecular target: T2, δ receptors; set-up: A single MVD was suspended in 4 ml modified Kreb's solution; from tissue; host or cells: mouse vas deferens; conditions: Balboni et al. (2000); cited from earlier work
μ receptors [9] = molecular target: T6, μ receptors (Cavia porcellus, UniProt P97266); conditions: Balboni et al. (2000); read-out: μ agonist activity IC50, published data; cited from earlier work
hMDR-1 = hMDR-1 (Homo sapiens, UniProt P08183); test: Calcein AM assay for Pgp in hMDR-1 transfected G-185 fibroblasts (Example 49); conditions: for inhibition of hMDR-1 (Pgp), in words: calcein fluorescence; for order of inhibition of hMDR-1: rank within amide series
Experimental: Stably transfected G-185 fibroblasts containing hMDR-1 and NIH 3T3 cell lines were grown to confluent monolayers in DMEM containing 4.5 g glucose/1, 10% fetal calf serum, L-glutamine, penicillin (50 units/ml), streptomycin (50 μg/ml) and 1 mM sodium pyruvate in 5% CO2 at 37° C. G-185 cells were maintained in […] colchicine.
The assay for Pgp is based on the diffusion of non-fluorescent calcein AM across the cell membrane. Calcein AM is then hydrolyzed and accumulates as the fluorescent calcein. In transfected cells expressing excess hMDR-1, Pgp extrudes calcein AM from the cell before hydrolysis occurs; inhibition of hMDR-1 results in the accumulation of intracellular calcein. Transfected G-185 cells and the NIH 3T3 cells were analyzed in triplicate using seven graded dosages of verapamil or the opioid peptides in 96-well plates. Cells (2.5×10^6/well) were incubated in 100 μl culture medium for 15 min at 37° C. and 50 μl of 1 μM calcein AM in PBS, plus 50 μl of verapamil or one of the present inventive compounds in PBS, or 100 μl of PBS alone (control) were added. Cells were mixed and incubated for 15 min at 37° C., then centrifuged for 5 min at 2,000×g, and then washed three times in 200 μl PBS. Cell pellets were resuspended in 200 μl PBS and transferred to white Microfluor Plates (Nunc, Copenhagen, Denmark) in order to measure calcein-specific fluorescence (494 nm absorption; 517 nm emission). Internal controls were carried out with each experiment using verapamil and PBS in order to compare the consistency between cell preparations. Means±SE (error bars) were determined and plotted using Prism™ (GraphPad, San Diego, Calif.).

δ-opioid receptors [10] = molecular target: T1, δ-opioid receptors; test: Rat brain synaptosome (P2) binding, agonist [3H]DPDPE (Example 47); conditions: for Agonist K1μ/Kiδ: selectivity, Kiδ from agonist radioligand [3H]DPDPE
Experimental: as §3

μ receptors [11] = molecular target: T6, μ receptors; test: Guinea pig ileum (GPI) functional bioassay (Example 48)
Experimental: as §1

[12] = rat brain synaptosomes (P2), mean ± SEM, n in parentheses, read-out: Kiμ (nM) [^3H]DAGO
[13] = rat brain synaptosomes (P2), mean ± SEM, n in parentheses, read-out: Kiδ(nM) [^3H]DPDPE
[14] = δ antagonism against deltorphin C, mean (range)

T3 sequence (P33533 whole entry): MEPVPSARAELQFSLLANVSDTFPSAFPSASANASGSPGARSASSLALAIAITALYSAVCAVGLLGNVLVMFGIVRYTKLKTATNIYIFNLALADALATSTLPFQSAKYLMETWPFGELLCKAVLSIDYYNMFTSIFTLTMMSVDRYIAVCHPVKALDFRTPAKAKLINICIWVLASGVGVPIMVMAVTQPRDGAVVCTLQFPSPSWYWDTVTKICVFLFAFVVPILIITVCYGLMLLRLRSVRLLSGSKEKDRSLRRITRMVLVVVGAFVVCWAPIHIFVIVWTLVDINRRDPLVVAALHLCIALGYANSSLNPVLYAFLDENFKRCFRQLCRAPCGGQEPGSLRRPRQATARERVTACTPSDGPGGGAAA
T1 sequence (P33533 whole entry): as above
Chain of hMDR-1 (P08183 whole entry): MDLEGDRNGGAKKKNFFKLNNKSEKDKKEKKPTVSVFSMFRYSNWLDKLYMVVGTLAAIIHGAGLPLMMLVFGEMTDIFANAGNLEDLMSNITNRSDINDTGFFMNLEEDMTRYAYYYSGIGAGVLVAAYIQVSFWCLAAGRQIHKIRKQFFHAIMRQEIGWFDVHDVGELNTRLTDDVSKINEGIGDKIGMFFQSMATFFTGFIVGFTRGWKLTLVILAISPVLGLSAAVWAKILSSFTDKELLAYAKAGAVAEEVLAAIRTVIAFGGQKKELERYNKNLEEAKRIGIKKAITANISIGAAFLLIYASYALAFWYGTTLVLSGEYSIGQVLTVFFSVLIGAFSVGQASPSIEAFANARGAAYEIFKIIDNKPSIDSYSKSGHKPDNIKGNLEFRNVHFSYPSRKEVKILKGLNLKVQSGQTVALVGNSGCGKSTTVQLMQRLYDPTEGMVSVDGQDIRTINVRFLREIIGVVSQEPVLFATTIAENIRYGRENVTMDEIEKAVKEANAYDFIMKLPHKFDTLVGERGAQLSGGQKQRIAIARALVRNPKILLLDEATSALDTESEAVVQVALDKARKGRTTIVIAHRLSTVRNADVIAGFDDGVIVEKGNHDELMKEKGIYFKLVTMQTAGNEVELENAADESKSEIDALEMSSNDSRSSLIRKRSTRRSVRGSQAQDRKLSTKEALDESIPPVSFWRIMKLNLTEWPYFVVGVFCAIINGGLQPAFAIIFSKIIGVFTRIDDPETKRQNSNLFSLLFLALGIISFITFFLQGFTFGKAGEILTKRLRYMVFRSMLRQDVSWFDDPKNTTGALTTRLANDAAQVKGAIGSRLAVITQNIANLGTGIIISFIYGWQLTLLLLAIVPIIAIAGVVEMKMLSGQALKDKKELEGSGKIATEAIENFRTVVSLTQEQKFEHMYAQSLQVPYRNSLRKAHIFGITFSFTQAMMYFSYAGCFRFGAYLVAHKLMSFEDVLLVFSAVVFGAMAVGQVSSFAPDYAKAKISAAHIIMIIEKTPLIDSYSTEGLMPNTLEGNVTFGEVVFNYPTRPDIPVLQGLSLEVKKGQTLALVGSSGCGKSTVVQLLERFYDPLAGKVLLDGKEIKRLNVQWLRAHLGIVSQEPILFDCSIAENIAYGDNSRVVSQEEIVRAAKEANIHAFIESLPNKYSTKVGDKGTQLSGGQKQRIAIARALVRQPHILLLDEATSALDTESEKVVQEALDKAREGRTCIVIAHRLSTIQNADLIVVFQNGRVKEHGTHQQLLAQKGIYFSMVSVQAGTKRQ
T2 sequence (P32300 whole entry): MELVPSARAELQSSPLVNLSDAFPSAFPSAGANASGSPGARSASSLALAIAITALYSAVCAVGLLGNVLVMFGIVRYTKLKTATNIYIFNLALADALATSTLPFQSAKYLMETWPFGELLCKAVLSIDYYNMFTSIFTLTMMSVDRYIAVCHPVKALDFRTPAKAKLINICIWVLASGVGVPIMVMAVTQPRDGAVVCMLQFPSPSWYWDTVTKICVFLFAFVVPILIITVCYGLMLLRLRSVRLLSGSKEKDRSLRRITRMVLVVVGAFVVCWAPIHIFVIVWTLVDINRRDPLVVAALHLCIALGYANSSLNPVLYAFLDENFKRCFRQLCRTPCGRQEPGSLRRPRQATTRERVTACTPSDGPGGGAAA
T5 sequence (P33535 whole entry): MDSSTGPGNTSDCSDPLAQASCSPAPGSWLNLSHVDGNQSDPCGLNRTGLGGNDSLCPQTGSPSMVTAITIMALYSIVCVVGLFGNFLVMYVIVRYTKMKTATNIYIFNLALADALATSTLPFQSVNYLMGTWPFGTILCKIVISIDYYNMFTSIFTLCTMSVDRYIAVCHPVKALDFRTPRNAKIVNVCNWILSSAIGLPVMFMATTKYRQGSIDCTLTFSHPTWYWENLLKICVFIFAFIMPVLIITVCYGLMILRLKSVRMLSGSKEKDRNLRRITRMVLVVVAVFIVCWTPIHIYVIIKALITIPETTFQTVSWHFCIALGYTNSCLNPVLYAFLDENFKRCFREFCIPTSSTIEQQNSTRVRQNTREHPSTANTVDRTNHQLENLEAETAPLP
T4 sequence (P33535 whole entry): as above
T6 sequence (P97266 whole entry, looked up): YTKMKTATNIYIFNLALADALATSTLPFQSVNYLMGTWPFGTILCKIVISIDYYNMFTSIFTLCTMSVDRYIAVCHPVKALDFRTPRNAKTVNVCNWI

## Cc1cc(O)cc(C)c1C[C@H](N)C(=O)N1Cc2ccccc2C[C@H]1C(=O)N[C@@H](C)C(=O)O [H-Dmt-Tic-Ala-OH, reference compound] (H-[Dmt]-[Tic]-Ala-OH)
δ-opioid receptors [1]
  Agonist K1μ/Kiδ: 2852^a
δ-opioid receptors [2]
  Antagonist K1μ/Kiδ: 2784
δ receptors [3]
  MVD Ke: 4.0 nM

## [^3H]N,N-(CH3)2-Dmt-Tic-OH
δ-opioid receptors [4]
  Kd: 0.39 nM

## Cc1cc(O)cc(C)c1C[C@H](N)C(=O)N1Cc2ccccc2C[C@H]1CO [H-Dmt-Tic-ol, reference compound]
δ receptors [5]
  μ/δ: 344
μ receptors [6]
  Ki: 151 nM

## Cc1cc(O)cc(C)c1C[C@H](N)C(=O)N1Cc2ccccc2C[C@H]1C(=O)O [H-Dmt-Tic-OH, reference compound] (H-[Dmt]-[Tic]-OH)
δ-opioid receptors [1]
  Agonist K1μ/Kiδ: 150800^a
μ-opioid receptors; [12]
  Ki: 3320 ± 435 nM
μ receptors [6]
  Ki: 3320 nM
δ receptors [3]
  MVD Ke: 5.7 nM

## Cc1cc(O)cc(C)c1CC(N)C(=O)N1Cc2ccccc2CC1c1nc2ccccc2[nH]1 (centres unmarked) [Compound 23, 2-amino-1-[3-(1H-benzoimidazole-2-yl)-3,4-dihydro-1H-isoquinoline-2-yl]-3-(4-hydroxyl-2,6-dimethylphenyl)-propane-1-one]
δ receptors [7]; high concentration (up to 1 μM)
  reduction of electrical stimulation of the tissue: 83%
δ receptors [5]
  δ binding affinity greater than H-Dmt-Tic-ol: 3 fold
  δ binding affinity higher than H-Dmt-Tic-NH2: 10 fold
  Ki: 0.13 nM
  μ/δ: 7.28
μ receptors [6]
  increase in μ receptor affinity relative to H-Dmt-Tic-NH2: ~40 fold
  Ki: 7.22 nM
δ receptors [8]
  δ antagonism pA2, published data: 7.67
μ receptors [9]
  IC50: 30 nM

## Cc1cc(O)cc(C)c1C[C@H](N)C(=O)N1Cc2ccccc2C[C@H]1C(=O)N[C@@H](C)C(N)=O [H-Dmt-Tic-Ala-NH2, reference compound] (H-[Dmt]-[Tic]-Ala-NH2)
δ-opioid receptors [1]
  Agonist K1μ/Kiδ: 195^a
δ receptors [5]
  Ki: 0.22 nM
  μ/δ: 195
hMDR-1
  inhibition of hMDR-1 (Pgp), in words: inactive
δ-opioid receptors [10]; [13]
  Ki: 0.24 ± 0.02 nM
μ-opioid receptors; [12]
  Ki: 47 ± 3.4 nM
μ receptors [6]
  Ki: 47 nM
δ-opioid receptors [2]
  Antagonist K1μ/Kiδ: 68
δ receptors [3]
  MVD Ke: 9.0 nM

## Cc1cc(O)cc(C)c1C[C@H](N)C(=O)N1Cc2ccccc2C[C@H]1C(=O)NCC(=O)NCc1nc2ccccc2[nH]1 [Compound 26, H-Dmt-Tic-Gly-NH—CH2-Bid]
δ receptors [7]
  δ activity on MVD, in words: potent δ antagonist activity
δ receptors [5]; from Table IV binding
  δ/μ selectivity, in words: essentially non-selective
δ receptors [5]
  μ/δ: 353

## Cc1cc(O)cc(C)c1C[C@@H](C(=O)N1Cc2ccccc2C[C@H]1C(=O)NC12CC3CC(CC(C3)C1)C2)N(C)C [Compound 15, N,N(Me)2-Dmt-Tic-NH-1-adamantane]
hMDR-1
  order of inhibition of hMDR-1: (compound 15)=H-Dmt-Tic-NH-1-adamantane (compound 11)
δ-opioid receptors [10]
  Ki: 0.16 ± 0.17 nM
  Agonist K1μ/Kiδ: 7
δ-opioid receptors [10]; from Table II binding
  δ/μ selectivity, in words: essentially nonselective
μ-opioid receptors
  Ki: 1.12 ± 0.1 nM
  rise in μ affinity relative to N,N(Me)2-Dmt-Tic-OH: ~2,200 fold
δ-opioid receptors [2]
  Ki: 0.12 ± 0.02 nM
  Antagonist K1μ/Kiδ: 9
δ receptors [3]; [14]
  Kb: 0.871 nM
δ receptors [3]
  MVD Ke: 0.87 nM
μ receptors [11]
  EC50: 16 nM
  bioactivity on GPI (μ), in words: clearly displayed μ agonism

## Cc1cc(O)cc(C)c1C[C@@H](C(=O)N1Cc2ccccc2C[C@H]1C(=O)O)N(C)C [N,N(Me)2-Dmt-Tic-OH, reference compound]
δ-opioid receptors [1]
  Agonist K1μ/Kiδ: 20636^b
hMDR-1
  inhibition of hMDR-1 (Pgp), in words: inactive
μ-opioid receptors; [12]
  Ki: 2440 ± 462 nM
δ-opioid receptors [2]
  Antagonist K1μ/Kiδ: 34785
δ receptors [3]; [14]
  MVD pA2 (range): 9.4

## Cc1cc(O)cc(C)c1C[C@H](N)C(=O)N1Cc2ccccc2C[C@H]1C(=O)NCc1nc2ccccc2[nH]1 [Compound 24, H-Dmt-Tic-NH—CH2-Bid]
δ receptors [7]
  δ activity on MVD, in words: potent δ-agonist activity
δ receptors [7]; pA2 of N,N(CH3)2-Dmt-Tic-OH against the listed δ agonist
  MVD, antagonist activity (pA2) N,N(CH3)2-Dmt-Tic-OH: 9.70
δ receptors [7]; pA2 of naloxone against the listed δ agonist
  MVD, antagonist activity (pA2) naloxone: 7.45
δ receptors [7]; δ agonism
  Functional Bioactivity MVD (pEC50): 9.90

## Cc1cc(O)cc(C)c1C[C@H](N)C(=O)N1Cc2ccccc2C[C@H]1C(N)=O [H-Dmt-Tic-NH2] (H-[Dmt]-[Tic]-NH2)
δ-opioid receptors [1]
  Agonist K1μ/Kiδ: 227^a

## Cc1cc(O)cc(C)c1C[C@H](N)C(=O)N1Cc2ccccc2C[C@H]1C(=O)N[C@@H](C)C(=O)NC(C)(C)C [Compound 20, H-Dmt-Tic-Ala-NH-tBu] (H-[Dmt]-[Tic]-Ala-NHtBu; N-terminus and C-terminus assumed)
hMDR-1
  order of inhibition of hMDR-1: (compound 20)>H-Dmt-Tic-NH-tBu (compound 9)
δ-opioid receptors [10]; [13]
  Ki: 0.066 ± 0.01 nM
δ-opioid receptors [10]
  Agonist K1μ/Kiδ: 61
μ-opioid receptors; [12]
  Ki: 4.03 ± 0.21 nM
δ-opioid receptors [2]; rat brain synaptosomes (P2), δ antagonist radioligand, mean ± SEM, n in parentheses, read-out: Kiδ(nM) [^3H]N,N(CH3)2-Dmt-Tic-OH
  Ki: 0.08 ± 0.02 nM
δ-opioid receptors [2]
  Antagonist K1μ/Kiδ: 48
δ receptors [3]
  bioactivity on MVD (δ), in words: highest δ-antagonist functional bioactivities
  MVD Ke: 0.69 nM
δ receptors [3]; [14]
  Kb: 0.692 nM
μ receptors [11]
  EC50: > 10000 nM
  Kb: 174 nM
μ receptors [11]; μ antagonism
  GPI Ke: 0.17 µM
